The test system of data set [1] is P-gp. As to conditions: cited from earlier work.
The nature of data set [2]: Inhibition of crystallization (solvent-shift method). As to conditions: for saturated concentration of FLQY2: in Soluplus aqueous solution (2 mg/mL), 37 °C. It is filed as physicochemical. Here is the method:
Inhibition of crystallization was studied using the solvent-shift method. 3 mL FLQY2 DMSO solution (1 mg/mL) was mixed respectively with six different 30 mL aqueous solution including six carriers (2 mg/mL) and stirred at 120 r/min under 37 °C. 0.5 mL solution was collected at 0.0833, 0.5, 1, 2, 4, 6, 8 h, filtered through 0.22 μm filters, and determined the dissolved FLQY2 by HPLC.

For data set [3], the system named is HCT 116 and Hep G2 cell lines. On the set-up: method as in PMID 31309350. The note with it: cited from earlier work.
A short description of data set [4]: MTT cytotoxicity assay. As to conditions: human. It is filed as cell-based, Human. The method, then:
(§1) The sample preparation: FLQY2 was dissolved in DMSO as a stock solution, and the stock solution was diluted by DMEM medium as a working solution. FLQY2-SD/ FLQY2-PM powder was dissolved in water, then the FLQY2-SD/FLQY2-PM solution was diluted by DMEM medium.
(§2) The cells were cultured in McCoy’s 5A medium for HCT 116 or DMEM medium for MIA PaCa-2 cells. All mediums contained 10% FBS and 1% penicillin–streptomycin solution. The cytotoxicity of FLQY2/FLQY2-SD was measured against these cells using an MTT assay. Briefly, 1 × 10^4 cells per well were seeded into 96 well plates for 24 h. Different concentrations of FLQY2 /FLQY2-SD solution and blank fresh medium were added to the plates and then incubated for 72 h. After adding MTT solution (5 mg/mL) for 4 h, 150 μL of DMSO was added to dissolve the formazan crystals. Absorbance at 570 nm with the control wavelength of 630 nm was used in infinite M200 pro (Tecan, Switzerland). Cell viability was expressed as a percentage relative to the blank control.
(In general: Tetrazolium dyes change colour on reduction, which living cells bring about.)

Data set [5] relates to HCT 116 and MIA PaCa-2 cells. The experiment in a line: MTT cytotoxicity assay. It is filed as cell-based, Human. The method, then:
as §1, §2

The test system of data set [6] is HT-29 tumor. The experiment in a line: Anticancer activity in vivo in HT-29 tumor-bearing mice. On the set-up: species or system BALB/c mice. The note with it: 100 mpk, i.p./QW, day 28. The method, then:
0.1 mL suspension of HT-29 cells were inoculated in female BALB/c mice at a density of 2 × 10^7/mL. After the tumors grew to 100–200 mm^3 (the day recorded as D0), the mice were randomly grouped and administered with Irinotecan hydrochloride (100 mpk, i.p./QW) (n = 6), Paclitaxel-albumin (15 mpk, i.v./Q4D) (n = 6), FLQY2-SD (1.5 mpk, p.o./QW) (n = 6), FLQY2-SD (1 mpk, p.o./QW) (n = 6), and saline as a blank control (n = 12). The tumor volume and body weight of the mice were recorded every 2 days. On day 28, the mice were sacrificed, and the tumors were surgically removed and weighed. Some parameters were calculated as follows.
tumor volume (TV): TV=1/2×ab^2
relative tumor volume (RTV): RTV=Vt/V0
tumor growth inhibition (TGI): TGI=(1-VT28-VT0/VC28-VC0)×100%
Where a and b are the length and width of the tumors; V0 and Vt are the tumor volume measured at D0 and at each measurement time Dt; VT28 and VT0 are the mean tumor volume in the treatment group at D28 and D0; VC28 and VC0 are the mean tumor volume in the negative control group at D28 and D0.

Data set [7] in a line: Identification of metabolites in plasma, urine and feces (UPLC-TripleTOF). The note with it: ESI−, [M-H]-; F, U, P not defined in the table (feces, urine, plasma samples analysed).
Method: The plasma, urine, and feces samples were processed as described above without IS, and the remaining volumes were made up of the precipitant. Chromatographic analysis was performed on an UltiMate 30 (Thermo Fisher Scientific, San Jose, CA, USA). Separation was carried out on an ACQUITY UPLC HSS T3 (1.8 μm, 2.1 × 100 mm) at 40 °C, 2 µL injection volume. In the positive ion mode, the mobile phase consisted of water containing 0.1% formic acid (A) and acetonitrile containing 0.1% formic acid (B). The gradient elution was performed with 5% B for 1.5 min, increasing to 10% B at 2.5 min, then ramping to 40% B at 14 min, rising to 95% B at 22 min, and remaining at 95% B until 25 min, and finally, the column was reconditioned with 5% B for 5 min. The mobile phase consisted of water containing 2 mM ammonium acetate (A) and acetonitrile (B) in the negative ion mode. The gradient elution was the same as in the positive ion mode.
Mass spectrometric analysis was acquired by Peakview 2.2 and MetabolitePilot 2.0.4 software using a quadrupole time-of-flight mass spectrometry (TripleTOF™ 5600, AB Sciex Corporation., Foster City, CA) with MS scans and information dependent acquisition (IDA) MS/MS scans. The mass spectrometer was operated in both positive and negative ion mode with electrospray ionization (ESI) source at 650 ℃. […]

Counter-ions that a name gives are not always drawn.

Turning to `CC[C@@]1(O)C(=O)OCc2c1cc1n(c2=O)Cc2c-1nc1cc3c(cc1c2-c1ccc(C(F)(F)F)cc1)OCO3` [FLQY2, 7-p-trifluoromethylphenyl-FL118], the efflux ratio in data set [1] is given as less than 2. In addition, the “saturated concentration of FLQY2” value in data set [2] (at 5 min) amounted to 51.60 µg/mL; in data set [2] (at 8 h), 48.76 µg/mL. Also, in data set [2] (mixture including PEG4000, PEG6000, PVP Va64, HS 15 and P407 (2 mg/mL)), the crystallization inhibition outcome is “crystallization and precipitation”. The IC50 result in data set [3] is “nM level”. The compound also yielded a viability at 2 h, 1 µM in data set [4] of more than 92.5%. Moreover, in data set [5], the cytotoxicity entry is listed as “dose-dependent toxicity”.

Compound `CCc1c2c(nc3ccc(OC(=O)N4CCC(N5CCCCC5)CC4)cc13)-c1cc3c(c(=O)n1C2)COC(=O)[C@]3(O)CC` [Irinotecan hydrochloride] came in with a TGI in data set [6] of 66.5%.

Turning to `C=c1c(=O)n2c(c/c1=C(/O)CC)-c1nc3cc4c(cc3c(-c3ccc(C(F)(F)F)cc3)c1C2)OCO4` [M1], the “Source (biological sample in which detected)” value in data set [7] was “F, U, P”.

Regarding `CC[C@@]1(O)OCc2c1cc1n(c2=O)Cc2c-1nc1cc3c(cc1c2-c1ccc(C(F)(F)F)cc1)OCO3` [M3], the “Source (biological sample in which detected)” value in data set [7] is given as “F, U, P”.

For the compound “Polyvinyl caprolactam-polyvinyl acetate-polyethylene glycol graft copolymer [Soluplus®]”, in data set [5], the cell viability result is “exceeded 91.0 ± 3.8%”.

The term efflux ratio denotes a quotient of directional permeabilities that is used to spot active efflux. As a reminder, the viability is the share of living cells, or the viability signal relative to a control. One may read the TGI as how far tumour growth fell short of that in controls. Low values mean little slowing of growth, high ones much slowing of growth.

The values above are taken from PMC9446799, “Preparation of a camptothecin analog FLQY2 self-micelle solid dispersion with improved solubility and bioavailability” (Journal of Nanobiotechnology, 2022).
